According to publication PMC9558617 (ACS infectious diseases, 2022):
In brackets after ≈: the same amount, converted by molar mass.

Assays:
Assay type in all cases: cell-based, Mycobacterium tuberculosis
[1] = test system: Mtb strain B1 tatC
[2] = test system: Mtb strain B3 tatA
[3] = test system: Mtb strain A3 tatB
[4] = test system: Mtb strain A6 tatB
[5] = test system: Mtb strain B2 tatC
[6] = test system: Q112-resistant Mtb strains; test: microbe, parasite or virus in culture

Capreomycin
MIC B1 tatC [1]: 0.78 µM
MIC B3 tatA [2]: 0.78 µM
MIC A3 tatB [3]: 0.78 µM
MIC A6 tatB [4]: 1.2 µM
MIC B2 tatC [5]: 1.2 µM

C[C@@H](O)[C@H]1C(=O)N2C(C(=O)O)=C(SCCN=CN)C[C@H]12 [Imipenem]
resistance (MIC increase) versus wild-type [2]: 16 fold

CO[C@H]1/C=C/O[C@@]2(C)Oc3c(C)c(O)c4c(O)c(c(/C=N/N5CCN(C)CC5)c(O)c4c3C2=O)NC(=O)/C(C)=C\C=C\[C@H](C)[C@H](O)[C@@H](C)[C@@H](O)[C@@H](C)[C@H](OC(C)=O)[C@@H]1C [Rifampicin]
factor of MIC decrease (hypersensitivity) versus wild-type [6]: 3–6 factor

C[C@]1(COc2ccc(N3CCC(Oc4ccc(OC(F)(F)F)cc4)CC3)cc2)Cn2cc([N+](=O)[O-])nc2O1 [Delamanid]
MIC increase versus wild-type [6]: 3–12 fold

CC(C)/N=c1\cc2n(-c3ccc(Cl)cc3)c3ccccc3nc-2cc1Nc1ccc(Cl)cc1 [Clofazimine]
resistance (MIC increase) versus wild-type [2]: 4 fold

CC1(C)S[C@@H]2[C@H](NC(=O)[C@H](N)c3ccccc3)C(=O)N2[C@H]1C(=O)O [Ampicillin]
factor of MIC decrease (hypersensitivity) versus wild-type [6]: > 16 factor
MIC ([6]; Mycobacterium tuberculosis): 1.6 to 3.1 µM (≈ 0.559 to 1.08 µg/mL)

CN[C@H](CC(C)C)C(=O)N[C@H]1C(=O)N[C@@H](CC(N)=O)C(=O)N[C@H]2C(=O)N[C@H]3C(=O)N[C@H](C(=O)N[C@H](C(=O)O)c4cc(O)cc(O)c4-c4cc3ccc4O)[C@H](O)c3ccc(c(Cl)c3)Oc3cc2cc(c3O[C@@H]2O[C@H](CO)[C@@H](O)[C@H](O)[C@H]2O[C@H]2C[C@](C)(N)[C@H](O)[C@H](C)O2)Oc2ccc(cc2Cl)[C@H]1O [Vancomycin]
factor of MIC decrease (hypersensitivity) versus wild-type [6]: 4–5 factor
